Results as given in the supplement of paper PMC10307832.

Key:
Assay in all cases: relative viability (nuclei count vs DMSO), 5 days (fraction); higher = more cells survive
[1] = compound: CC1=C(C(=NN1)C)CC2=C(C3=C(S2)N(C(=O)N(C3=O)C)CC(C)C)C(=O)N4C[C@@H](CO4)O + CS(=O)(=O)CCNCc1ccc(-c2ccc3ncnc(Nc4ccc(OCc5cccc(F)c5)c(Cl)c4)c3c2)o1 [Lapatinib] (partner 2 µM)
In short: (§1)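 Dosing by pin tool came one day after lung cancer cell lines were seeded in 1536-well plates, using either one drug or a fixed anchor-drug dose plus five library-drug doses (not always all listed) in √10 steps. After 5 days, nuclei were counted on 4× images. Relative viability is treated-well nuclei count divided by vehicle-well nuclei count, and values are medians of duplicate plates.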

IDH-C35 + Olaparib = compound: Cc1ccccc1C(C(=O)NC1CCCCC1)N(C(=O)Cn1ccnc1C)c1cccc(F)c1 [IDH-C35] + O=C(c1cc(Cc2n[nH]c(=O)c3ccccc23)ccc1F)N1CCN(C(=O)C2CC2)CC1 [Olaparib] (partner 8 µM)
In short: as §1

IDH-C35 + Alpelisib = compound: Cc1ccccc1C(C(=O)NC1CCCCC1)N(C(=O)Cn1ccnc1C)c1cccc(F)c1 [IDH-C35] + Cc1nc(NC(=O)N2CCC[C@H]2C(N)=O)sc1-c1ccnc(C(C)(C)C(F)(F)F)c1 [Alpelisib] (partner 2 µM)
In short: as §1

IDH-C35 + Tozasertib = compound: Cc1ccccc1C(C(=O)NC1CCCCC1)N(C(=O)Cn1ccnc1C)c1cccc(F)c1 [IDH-C35] + Cc1cc(Nc2cc(N3CCN(C)CC3)nc(Sc3ccc(NC(=O)C4CC4)cc3)n2)n[nH]1 [Tozasertib] (partner 0.1 µM)
In short: as §1

Cell Line | relative viability ([1]; first compound 0.0025 µM) | relative viability ([1]; first compound 0.007906 µM) | relative viability ([1]; first compound 0.025 µM) | relative viability ([1]; first compound 0.07906 µM) | relative viability ([1]; first compound 0.25 µM) | relative viability (IDH-C35 + Olaparib; first compound 0.08 µM) | relative viability (IDH-C35 + Olaparib; first compound 0.253 µM) | relative viability (IDH-C35 + Olaparib; first compound 0.8 µM) | relative viability (IDH-C35 + Olaparib; first compound 2.53 µM) | relative viability (IDH-C35 + Olaparib; first compound 8 µM) | relative viability (IDH-C35 + Alpelisib; first compound 0.08 µM) | relative viability (IDH-C35 + Alpelisib; first compound 0.253 µM) | relative viability (IDH-C35 + Alpelisib; first compound 0.8 µM) | relative viability (IDH-C35 + Alpelisib; first compound 2.53 µM) | relative viability (IDH-C35 + Alpelisib; first compound 8 µM) | relative viability (IDH-C35 + Tozasertib; first compound 0.08 µM) | relative viability (IDH-C35 + Tozasertib; first compound 0.253 µM) | relative viability (IDH-C35 + Tozasertib; first compound 0.8 µM) | relative viability (IDH-C35 + Tozasertib; first compound 2.53 µM) | relative viability (IDH-C35 + Tozasertib; first compound 8 µM)
NCI-H2023 | 1.1 | 0.965 | 0.903 | 1.03 | 0.861 | 0.513 | 0.455 | 0.503 | 0.474 | 0.446 | 0.598 | 0.581 | 0.579 | 0.492 | 0.611 | 0.352 | 0.343 | 0.355 | 0.297 | 0.248
NCI-H2085 | 0.706 | 0.767 | 0.598 | 0.72 | 0.595 | 0.807 | 0.776 | 0.77 | 0.789 | 0.712 | 0.973 | 0.897 | 0.799 | 1.01 | 0.863 | 0.793 | 0.845 | 0.751 | 0.793 | 0.718
NCI-H2087 | 1.11 | 1.15 | 1.09 | 0.939 | 1.23 | 0.561 | 0.533 | 0.627 | 0.58 | 0.558 | 1.11 | 1.13 | 1.05 | 1.09 | 0.874 | 0.196 | 0.23 | 0.279 |  | 0.264
NCI-H2126 | 0.816 | 0.739 | 0.78 | 0.741 | 0.739 | 0.896 | 0.928 | 0.92 | 0.912 | 0.917 | 0.766 | 0.758 | 0.745 | 0.737 | 0.752 | 0.81 | 0.812 | 0.865 | 0.824 | 0.884
NCI-H2170 | 0.282 | 0.279 | 0.276 | 0.273 | 0.306 | 0.616 | 0.654 | 0.587 | 0.571 | 0.593 | 0.798 | 0.776 | 0.832 | 0.795 | 0.788 | 0.781 | 0.724 | 0.678 | 0.728 | 0.693
NCI-H2228 | 1.03 | 1.02 | 1.37 | 0.961 | 1.34 | 0.601 | 0.781 | 0.61 | 0.71 | 0.516 | 0.744 | 0.722 | 0.735 | 0.779 | 0.74 | 0.319 | 0.221 | 0.302 | 0.246 | 0.203
NCI-H2347 | 0.993 | 0.956 | 0.86 | 0.964 | 1.09 | 0.577 | 0.628 | 0.609 | 0.522 | 0.554 | 1.14 | 1.12 | 1.03 | 1.16 | 1.03 | 0.476 | 0.599 | 0.497 | 0.657 | 0.418
NCI-H2405 | 1.26 | 1.1 |  | 1.18 | 1.12 | 0.85 | 0.858 | 0.825 | 0.98 | 0.884 | 0.927 | 0.815 | 0.777 |  | 0.736 | 0.735 | 0.776 | 0.758 | 0.716 | 0.689
NCI-H3122 | 1.06 | 1.03 | 1.01 | 0.993 | 1.02 | 0.583 | 0.537 | 0.587 | 0.623 | 0.665 | 0.904 | 0.739 | 0.729 | 0.78 | 0.849 | 0.363 | 0.401 | 0.394 | 0.317 | 0.42
PC-3 [JPC-3] | 0.475 | 0.411 | 0.501 | 0.522 | 0.427 | 1.15 | 1.11 | 1.2 | 1.07 | 1.06 | 1.08 | 1.04 | 0.988 | 1.08 | 1.04 | 0.803 | 0.898 | 0.861 | 0.852 | 0.927
PC-14 | 0.373 | 0.413 | 0.32 | 0.32 | 0.359 | 0.251 | 0.271 | 0.222 | 0.292 | 0.237 | 1.02 | 0.956 | 0.959 | 0.927 | 0.758 | 0.634 | 0.542 | 0.611 | 0.58 | 0.557
RERF-LC-KJ | 0.899 | 0.928 | 0.86 | 0.885 | 0.941 | 0.853 | 0.896 | 0.963 | 0.985 | 0.869 | 0.824 | 0.827 | 0.853 | 0.73 | 0.886 | 0.396 | 0.503 | 0.489 | 0.544 | 0.442
SK-LU-1 | 0.805 | 0.425 | 0.263 | 0.295 | 0.4 | 0.422 | 0.399 | 0.396 | 0.484 | 0.448 | 0.993 | 0.918 | 1.29 | 1.11 | 0.934 | 0.359 | 0.347 | 0.364 | 0.341 | 0.341
SK-MES-1 | 0.474 | 0.462 | 0.445 | 0.434 | 0.454 | 0.737 | 0.728 | 0.609 | 0.693 | 0.631 | 1.02 | 1.01 | 0.873 | 0.887 | 0.833 | 0.927 | 0.86 | 0.88 | 0.863 | 0.761
SW 1573 | 1.09 | 1.02 | 1.05 | 1.04 | 1.19 | 0.5 | 0.54 | 0.496 | 0.433 | 0.467 | 0.745 | 0.699 | 0.685 | 0.692 | 0.754 | 0.187 | 0.14 | 0.239 | 0.194 | 0.184
